Data as given in patent US7422854B1, “Cholesterol reduction signature” (priority 2002, dated 2008).

Tests used:
[1] = system: livers of rats; test: Signature Projection Score (SPS): match of liver gene expression to the Cholesterol Reduction Signature; assay type: in vivo; conditions: dose 10 (mg/ml), rat liver, maximum of training treatments = 100
Protocol: (§1) After determination of the MTD and FED for a compound, each compound was dissolved in a vehicle for administration on day 1 of the study (additional daily doses were stored as frozen aliquots from this initial formulation). Each compound was administered to three individual male Sprague-Dawley rats for each of the two doses (MTD and FED) for one of four different times (0.25 day, 1 day, 3 days, and 5 days), yielding a total of up to 24 animals per compound study. Vehicle choice was based on solubility of the compound, effect of food on adsorption, and the vehicles used in the literature reports examined during the FED selection investigations, described above. Generally, the route and vehicle in which the FED was defined are used. When there was a choice of routes and vehicles, oral routes were chosen over injection routes. Many compounds, especially oncolytics, are only administerable intravenously. In such cases, the compound was administered as an intravenous formulation into the tail vein. Orally administered compounds were given dissolved in either water, 1% carboxymethycellulose (CMC) or corn oil. Intravenously and intraperitoneally administered compounds were given in 0.9% saline. Subcutaneously administered compounds were given in corn oil. Animal body weights were determined at 1 day and, where appropriate, at 4 days, before necropsy, and clinical observations were made on a daily basis. Control animals were dosed with vehicle only. Three male animals were used for each dose and time combination used for the compound treatment.
(§2) Tissue harvest and handling: After the allocated treatment time, the tissues from the animals were harvested. […] All the tissues collected were divided to provide samples for histopathological analyses, and the remainder of each tissue was then snap-frozen. […] The following blood constituents were measured: Blood Urea Nitrogen (BUN), Creatinine (CRE), Glucose (GLU), Alanine Transaminase (ALT), Aspartate Aminotrans-ferase (AST), Alkaline Phosphatase (ALP), Total Bilirubin (TBI), Sodium (SOD), Potassium (POT), Chloride (CHL), Phosphorus (PHO), Total Protein (TPR), Albumin (ALB), Cholesterol (CHO), Creatine Phosphokinase (CPK), Lactate Dehydrogenase (LDH), Carbon Dioxide (CO2), Uric Acid (UA), and Lipase. […] The parameters were measured using a Baker 9000 blood cell analysis instrument according to the manufactures instructions. The following blood constituents were measured: Leukocyte count (WBC), Differential Leukocyte counts, Erythrocyte count (RBC), Hemoglobin concentration (HGB), Hematocrit (HCT), Mean Corpuscular Volume (MCV), Mean Corpuscular Hemoglobin (MCH), Mean Corpuscular Hemoglobin Concentration (MCC), Thrombocyte Count (PLC). Histopathology: Histopathological analyses of hematoxylin and eosin-stained tissue sections were performed and peer-reviewed by board-certified (Diplomate, American College of Veterinary Pathologists) veterinary pathologists. Preparation of Enriched mRNA: Punch Biopsies were Taken from the Frozen Tissues and were completely homogenized before being processed using the MagNA Pure robot. (Roche Diagnostics Corp., Indianapolis, Ind.) in combination with the MagNA Pure LC RNA Isolation kit II (Roche Diagnostics Corp). The amount of lysis buffer was adjusted to allow 1 ml per 50 mg for liver tissue, or 1 ml per 80 mg for all other tissues. After complete homogenization and before loading of the samples into the 32-well MagNA Pure plate, the samples were syringed 5-6 times using a 20-gauge 3-ml syringe to ensure a smooth solution for robotic processing. Tissue sample processing was performed in duplicate wells (loading 150 μl of homogenized sample and 150 μl of additional lysis buffere to each well) of the MagNA Pure LC, which is programmed to extract mRNA using oligo-dT selection technology into a final elution volume of 100 μl. Poly A(+) RNA sample concentration was performed using a standard ethanol precipitation protocol in the presence of glycogen (50 μg/ml).

[2] = system: male Sprague-Dawley rats; test: Cholesterol Lowering Index: total blood cholesterol (clinical chemistry) in treated versus vehicle-treated rats; assay type: in vivo, rat; conditions: male rats; for Chol index (fold reduction): vs vehicle
Text: Compound dosing was based on the acute dose LD50s recorded in published reference or literature sources. […] The MTD (maximum tolerated dose) was then selected as the dose at which the animals […] 5-10% body weight during the 5-day range finding study. […] In addition, the clinical observations must show no or mild clinical signs during the whole of the range-finding study. At the next highest dose, signs and symptoms of adverse effects and exceeding those of the MTD should be seen to occur. Should these criteria not be met, the range-finding study is repeated using a modified dose range.
as §1
as §2, with “Corp).” for “Corp). The amount of lysis buffer was adjusted to allow 1 ml per 50 mg for liver tissue, or 1 ml per 80 mg for all other tissues. After complete homogenization and before loading of the samples into the 32-well MagNA Pure plate, the samples were syringed 5-6 times using a 20-gauge 3-ml syringe to ensure a smooth solution for robotic processing. Tissue sample processing was performed in duplicate wells (loading 150 μl of homogenized sample and 150 μl of additional lysis buffere to each well) of the MagNA Pure LC, which is programmed to extract mRNA using oligo-dT selection technology into a final elution volume of 100 μl. Poly A(+) RNA sample concentration was performed using a standard ethanol precipitation protocol in the presence of glycogen (50 μg/ml).”

[3] = system: rat; conditions: cited from earlier work

| SMILES | SPS ([1]; time point 1 day) | SPS ([1]; time point 5 days) | Cholesterol Index (fold reduction) ([2]; Table 4, dose 10, time point 5 days) | Chol index (fold reduction) ([2]; dose 10, time 3 days) | Chol index (fold reduction) ([2]; dose 10, time 5 days) | reduction in total cholesterol ([3]; rat, 4-7 daily dosing) [%] | Chol index (fold reduction) ([2]; dose 6.5, time 5 days) | effect on cholesterol ([3]; ovarectomized female rats) |
| --- | --- | --- | --- | --- | --- | --- | --- | --- |
| C#C[C@]1(O)CC[C@H]2[C@@H]3CCc4cc(O)ccc4[C@H]3CC[C@@]21C [ETHINYLESTRADIOL, (17α)-norpregna-1,3,5(10)-trien-20-yne-3,17-diol] | 50 | 76.2 | 3.9 | 3.65 | 4.09 | 89 | – | – |
| O=C(c1ccc(OCCN2CCCCC2)cc1)c1c(-c2ccc(O)cc2)sc2cc(O)ccc12 [RALOXIFENE, [6-hydroxy-2-(4-hydroxyphenyl)-3-(4-[2-piperidin-1-yl)ethoxy]benzoyl)-benzo[b]thiene] | – | – | – | – | – | – | 2.61 | lower cholesterol |
